Test results taken from PMC11207335, “In Vitro Metabolism and Transport Characteristics of Zastaprazan” (Pharmaceutics, 2024).

How the values were obtained:
[1] = Apparent permeability in Caco-2 cells; assay type: in vitro ADME; details: human; for Papp A→B at 1 h, 4 µM / Papp B→A at 1 h, 4 µM: Caco-2, pH 7.4
Protocol: Caco-2 cells (passage no. 41–42) were grown in tissue culture flasks containing Dulbecco’s Modified Eagle Medium supplemented with 20% FBS, 1% nonessential amino acids, and 1% penicillin–streptomycin. […] The culture medium was replaced every other day. On the day of the experiment, the growth medium was discarded, and the attached cells were washed with prewarmed HBSS (pH 7.4) and preincubated with HBSS for 20 min at 37 °C. […] Aliquots (30 μL) of each sample were vortex-mixed with 90 μL of IS solution for 1 min, and then centrifugation was performed at 13,500 rpm at 4 °C for 5 min. Aliquots (5 μL) of the supernatant were injected into the LC-MS/MS for analysis.

OATP1B3 = target: T1, OATP1B3 (Homo sapiens, UniProt Q9NPD5); assay: Uptake into HEK293 cells expressing OATP1B3; details: for Uptake Rate / Fold-Change: 6 μM; for Fold-Change: vs HEK293-mock; for Substrate: OATP1B3
T1 sequence (Q9NPD5 1-702): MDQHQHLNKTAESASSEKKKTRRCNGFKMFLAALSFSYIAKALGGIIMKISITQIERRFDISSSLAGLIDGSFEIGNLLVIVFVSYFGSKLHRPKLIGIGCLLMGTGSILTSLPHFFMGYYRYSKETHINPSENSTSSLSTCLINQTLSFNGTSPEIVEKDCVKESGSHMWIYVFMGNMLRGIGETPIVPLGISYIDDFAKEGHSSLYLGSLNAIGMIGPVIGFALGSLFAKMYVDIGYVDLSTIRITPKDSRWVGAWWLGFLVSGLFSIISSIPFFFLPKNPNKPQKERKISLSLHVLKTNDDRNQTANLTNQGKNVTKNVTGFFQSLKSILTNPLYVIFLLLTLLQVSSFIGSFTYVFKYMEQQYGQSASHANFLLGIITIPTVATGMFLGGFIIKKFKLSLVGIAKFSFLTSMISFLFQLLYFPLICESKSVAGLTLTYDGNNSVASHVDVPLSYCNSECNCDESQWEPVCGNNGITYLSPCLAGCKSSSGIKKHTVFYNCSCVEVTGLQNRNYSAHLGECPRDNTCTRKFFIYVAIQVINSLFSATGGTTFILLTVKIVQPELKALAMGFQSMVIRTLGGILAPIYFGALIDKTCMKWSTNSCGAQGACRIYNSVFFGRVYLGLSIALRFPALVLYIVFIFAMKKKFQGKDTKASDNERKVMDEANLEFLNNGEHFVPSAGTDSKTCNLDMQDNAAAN

OCT2 = target: T2, OCT2 (Homo sapiens, UniProt O15244); assay: Uptake into HEK293 cells expressing OCT2; details: for Uptake Rate / Fold-Change: 6 μM; for Fold-Change: vs HEK293-mock; for Substrate: OCT2
T2 sequence (O15244 1-555): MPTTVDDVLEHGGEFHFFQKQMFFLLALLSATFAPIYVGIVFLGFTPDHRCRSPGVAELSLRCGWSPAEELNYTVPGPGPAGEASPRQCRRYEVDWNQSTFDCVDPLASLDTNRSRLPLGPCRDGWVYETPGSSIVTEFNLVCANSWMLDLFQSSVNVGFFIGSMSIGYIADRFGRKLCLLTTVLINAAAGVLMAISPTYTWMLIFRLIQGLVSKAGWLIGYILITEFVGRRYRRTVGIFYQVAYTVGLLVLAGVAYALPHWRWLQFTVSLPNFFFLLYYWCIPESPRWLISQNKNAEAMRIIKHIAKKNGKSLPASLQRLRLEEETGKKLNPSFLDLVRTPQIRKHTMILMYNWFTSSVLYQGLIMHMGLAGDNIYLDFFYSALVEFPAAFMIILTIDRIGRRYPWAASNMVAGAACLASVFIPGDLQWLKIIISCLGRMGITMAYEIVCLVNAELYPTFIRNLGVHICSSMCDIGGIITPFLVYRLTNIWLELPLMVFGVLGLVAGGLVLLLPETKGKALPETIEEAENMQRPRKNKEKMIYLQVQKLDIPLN

MATE1 = target: T3, MATE1 (Homo sapiens, UniProt Q96FL8); assay: Uptake into HEK293 cells expressing MATE1; details: for Uptake Rate / Fold-Change: 6 μM; for Fold-Change: vs HEK293-mock; for Substrate: MATE1
T3 sequence (Q96FL8 1-570): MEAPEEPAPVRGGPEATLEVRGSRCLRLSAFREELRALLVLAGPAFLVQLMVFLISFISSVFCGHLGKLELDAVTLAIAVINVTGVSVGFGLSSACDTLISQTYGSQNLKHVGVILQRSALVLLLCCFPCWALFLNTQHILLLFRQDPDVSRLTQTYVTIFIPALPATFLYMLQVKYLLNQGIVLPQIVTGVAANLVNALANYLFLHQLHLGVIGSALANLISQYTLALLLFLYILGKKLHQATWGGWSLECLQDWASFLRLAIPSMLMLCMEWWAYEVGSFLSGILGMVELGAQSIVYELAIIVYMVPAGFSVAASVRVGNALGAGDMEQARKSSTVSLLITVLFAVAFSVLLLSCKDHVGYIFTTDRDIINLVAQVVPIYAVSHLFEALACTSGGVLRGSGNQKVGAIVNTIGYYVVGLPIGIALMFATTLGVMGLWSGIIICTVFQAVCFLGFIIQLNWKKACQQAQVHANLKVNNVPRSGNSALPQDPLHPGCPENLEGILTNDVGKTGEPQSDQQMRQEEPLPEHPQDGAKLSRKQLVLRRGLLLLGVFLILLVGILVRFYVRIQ

[2] = HEK293-MATE1, cimetidine 100 μM

| Papp A→B at 1 h, 4 µM [1] [×10⁻⁶ cm/s] | Papp B→A at 1 h, 4 µM [1] [×10⁻⁶ cm/s] | efflux ratio at 1 h, 4 µM ([1]; pH 7.4, Caco-2, mean Papp,BA / mean Papp,AB, read-out: ER) | Uptake Rate (OATP1B3; HEK293-OATP1B3, control) [pmol/min/10^5 Cells] | Fold-Change (OATP1B3; HEK293-OATP1B3, control) | Uptake Rate (OATP1B3; HEK293-OATP1B3, rifampin 20 μM) [pmol/min/10^5 Cells] | Fold-Change (OATP1B3; HEK293-OATP1B3, rifampin 20 μM) | Substrate (OATP1B3) | Uptake Rate (OCT2; HEK293-OCT2, cimetidine 100 μM) [pmol/min/10^5 Cells] | Fold-Change (OCT2; HEK293-OCT2, cimetidine 100 μM) | Uptake Rate (OCT2; HEK293-OCT2, control) [pmol/min/10^5 Cells] | Fold-Change (OCT2; HEK293-OCT2, control) | Substrate (OCT2) | Uptake Rate (MATE1; [2]) [pmol/min/10^5 Cells] | Fold-Change (MATE1; [2]) | Uptake Rate (MATE1; HEK293-MATE1, control) [pmol/min/10^5 Cells] | Fold-Change (MATE1; HEK293-MATE1, control) | Substrate (MATE1) | SMILES |
| --- | --- | --- | --- | --- | --- | --- | --- | --- | --- | --- | --- | --- | --- | --- | --- | --- | --- | --- |
| 3.36 ± 0.24 | 20.3 ± 1.51 | 6 | 44.54 ± 0.74 | 0.9 | 52.67 ± 2.99 | 1.0 | No | 49.28 ± 4.50 | 1.0 | 51.71 ± 1.36 | 1.0 | No | 78.57 ± 5.38 | 1.5 | 65.32 ± 4.13 | 1.3 | No | Cc1cccc(CO)c1CNc1cc(C(=O)N2CCC2)cn2c(C)c(C)nc12 [M1, azetidin-1-yl(8-((2-(hydroxymethyl)-6-methyl-benzyl)amino)-2,3-dimethylimidazo[1,2-a]pyridin-6-yl)methanone] |
| 23 ± 5.79 | 10.7 ± 1.77 |  | 44.54 ± 0.74 |  | 52.67 ± 2.99 |  | No | 49.28 ± 4.50 |  | 51.71 ± 1.36 |  | No | 78.57 ± 5.38 |  | 65.32 ± 4.13 |  | No | Cc1cccc(C)c1CNc1cc(C(=O)N2CCC2)cn2c(C)c(C)nc12 [JP-1366, 1-azetidinyl(8-(((2,6-dimethylphenyl)methyl)amino)-2,3-dimethylimidazo(1,2-a)pyridin-6-yl)methanone] |
